pIC50, pKd: −log10 of the molar value. Read-outs that look alike come from different tables or passages of the source. Where a SMILES comes first, the peptide text is derived from it. Bridges are numbered along the chain shown (N, C = ends). [ ]: non-standard residue; d: D form. The star is where a group is joined. hPhe(3-Cl-4-CF3) = N[C@@H](CCc1ccc(C(F)(F)F)c(Cl)c1)C(=O)O; NPrPhe(4-CF3) = CCCN[C@@H](Cc1ccc(C(F)(F)F)cc1)C(=O)O; NMeGly(cPent) = CN[C@H](C(=O)O)C1CCCC1; NMeD = CN[C@@H](CC(=O)O)C(=O)O; NMeL = CN[C@@H](CC(C)C)C(=O)O; Oxazolidin(3-yl) = C1CN(*)CO1; Morpholide = C1CN(*)CCO1; Ac5c = NC1(C(=O)O)CCCC1; Aze = O=C(O)[C@@H]1CCN1; Ac4c = NC1(C(=O)O)CCC1; Sar = CNCC(=O)O
Tests used:
[1] = biological target: GDP-bound KRAS wild-type protein (Homo sapiens, UniProt P01116); test: Binding to KRAS by surface plasmon resonance (SPR), Single Cycle Kinetics; conditions: GDP-bound KRAS wild-type protein, read-out: KRAS KD
[2] = biological target: GDP-bound NRAS wild-type protein (Homo sapiens, UniProt P01111); test: Binding to NRAS by surface plasmon resonance (SPR), Single Cycle Kinetics; conditions: for NRAS/KRAS (ratio of KD value for NRAS to KD value for KRAS): SPR, GDP-bound NRAS wild-type protein vs GDP-bound KRAS wild-type protein; for NRAS/KRAS (ratio of KD value with respect to GDP-bound NRAS wild-type protein to KD value with respect to KRAS): SPR KD ratio NRAS/KRAS, class symbols
[3] = biological target: GDP-bound HRAS wild-type protein (Homo sapiens, UniProt P01112); test: Binding to HRAS by surface plasmon resonance (SPR), Single Cycle Kinetics; conditions: for HRAS/KRAS (ratio of KD value for HRAS to KD value for KRAS): SPR, GDP-bound HRAS wild-type protein vs GDP-bound KRAS wild-type protein; for HRAS/KRAS (ratio of KD value with respect to GDP-bound HRAS wild-type protein to KD value with respect to KRAS): SPR KD ratio HRAS/KRAS, class symbols
[4] = system: human lung cancer strain NCI-H441;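 further: cell proliferation inhibition after four days measured by CellTiter-Glo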
[5] = SPR, Single Cycle Kinetics, 1:1 binding model
[6] = SPR Single Cycle Kinetics, 1:1 binding model

GDP-bound KRAS wild-type protein, sequence (P01116 whole entry): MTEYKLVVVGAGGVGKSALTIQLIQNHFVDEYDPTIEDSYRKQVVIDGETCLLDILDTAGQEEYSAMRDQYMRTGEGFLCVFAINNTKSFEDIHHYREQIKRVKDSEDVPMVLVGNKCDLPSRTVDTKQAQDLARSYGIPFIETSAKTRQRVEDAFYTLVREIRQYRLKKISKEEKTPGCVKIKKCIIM
GDP-bound HRAS wild-type protein, sequence (P01112 whole entry): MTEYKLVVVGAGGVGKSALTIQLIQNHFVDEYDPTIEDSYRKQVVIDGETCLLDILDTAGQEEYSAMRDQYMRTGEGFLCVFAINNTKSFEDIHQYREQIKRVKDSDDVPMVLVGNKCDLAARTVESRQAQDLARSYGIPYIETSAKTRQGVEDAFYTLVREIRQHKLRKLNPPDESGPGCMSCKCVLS
GDP-bound NRAS wild-type protein, sequence (P01111 whole entry): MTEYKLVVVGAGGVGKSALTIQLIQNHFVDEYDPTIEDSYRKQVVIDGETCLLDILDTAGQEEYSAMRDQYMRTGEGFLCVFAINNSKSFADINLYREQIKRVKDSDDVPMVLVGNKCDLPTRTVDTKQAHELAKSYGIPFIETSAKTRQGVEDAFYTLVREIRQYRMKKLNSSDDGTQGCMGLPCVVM

Row | Structure (SMILES) | pKd [1, 5] | pIC50 [4] | pKd [1, 6] | pKd ([1]; SPR, Single Cycle Kinetics) | NRAS/KRAS (ratio of KD value for NRAS to KD value for KRAS) ([2]; KD ratio class) | HRAS/KRAS (ratio of KD value for HRAS to KD value for KRAS) ([3]; KD ratio class) | NRAS/KRAS (ratio of KD value with respect to GDP-bound NRAS wild-type protein to KD value with respect to KRAS) [2] | HRAS/KRAS (ratio of KD value with respect to GDP-bound HRAS wild-type protein to KD value with respect to KRAS) [3] | NRAS/KRAS (ratio of KD value for NRAS to KD value for KRAS) [2] | HRAS/KRAS (ratio of KD value for HRAS to KD value for KRAS) [3]
1 | CCO[C@@H]1C[C@H]2C(=O)NC3(CCCC3)C(=O)N(C)[C@@H](C(CC)CC)C(=O)N(C)[C@H](C(=O)N3CCCC3)CC(=O)N(C)[C@@H](C)C(=O)N[C@@H]([C@@H](C)CC)C(=O)N(C)CC(=O)N(C)[C@H]3C/C=C\CCN(C3=O)[C@@H](CC3CCC(F)(F)CC3)C(=O)N(C)CC(=O)N[C@@H](CCc3cc(F)c(C(F)(F)F)c(F)c3)C(=O)N2C1 [PP1437] | 9.21 | 6.66 |  |  | A (a compound having 10 or more and less than 20 is denoted as A) | A (a compound having 10 or more and less than 20 is denoted as A) |  |  |  | 
2 | CCC(CC)[C@H]1C(=O)N(C)[C@H](C(=O)N(C)C)CC(=O)N(C)[C@@H](COC)C(=O)N[C@@H]([C@@H](C)CC)C(=O)N(C)CC(=O)N(C)[C@H]2C/C=C\CCN(C2=O)[C@@H](Cc2ccc(C(F)F)cc2)C(=O)N(C)CC(=O)N[C@@H](CCc2ccc(Cl)c(Cl)c2)C(=O)N2C[C@H](OC3CCCC3)C[C@H]2C(=O)NC2(CC(C)(C)C2)C(=O)N1C [PP2649] |  | 7.21 | 9.40 |  |  |  | AA (a compound having 20 or more is denoted as AA) | A (a compound having 10 or more and less than 20 is denoted as A) |  | 
3 | CCC[C@H]1C(=O)N[C@@H]([C@@H](C)CC)C(=O)N(C2CC2)CC(=O)N(C)[C@H]2C/C=C\CCN(C2=O)[C@@H](Cc2ccc(C(F)(F)F)cc2)C(=O)N(C)CC(=O)N[C@@H](CCc2ccc(C(F)(F)F)c(OC)c2)C(=O)N2C[C@H](OCC)C[C@H]2C(=O)NC2(CC(C)(C)C2)C(=O)N(C)[C@@H](CC(C)(C)C)C(=O)N(C)[C@H](C(=O)N(C)C)CC(=O)N1C [PP2746] |  | 7.99 | 9.55 |  |  |  | A (a compound having 10 or more and less than 20 is denoted as A) | A (a compound having 10 or more and less than 20 is denoted as A) |  | 
4 | CCOC[C@H]1C(=O)N[C@@H]([C@@H](C)CC)C(=O)N(C)CC(=O)N(C)[C@H]2C/C=C\CCN(C2=O)[C@@H](CC2CCCCC2)C(=O)N(C)CC(=O)N[C@@H](CCc2ccc(C(F)(F)F)c(OC)c2)C(=O)N2C[C@@H](C)C[C@H]2C(=O)N(C)C2(CCC2)C(=O)N(C)[C@@H](C2CCCC2)C(=O)N(C)[C@H](C(=O)N(C)C)CC(=O)N1C [PP2371] |  | 7.38 |  | 9.19 |  |  |  |  | A (a compound having 10 or more and less than 20 is denoted as A) | B (a compound having 3 or more and less than 10 is denoted as B)
5 | CCO[C@@H]1C[C@H]2C(=O)NC3(CC(C)(C)C3)C(=O)N(C)[C@@H](C3CCCC3)C(=O)N(C)[C@H](C(=O)N(C)CC)CC(=O)N(C)[C@@H](COC)C(=O)N[C@@H]([C@@H](C)CC)C(=O)N(C)CC(=O)N(C)[C@H]3C/C=C\CCN(C3=O)[C@@H](Cc3ccc(C)cc3)C(=O)N(C)CC(=O)N[C@@H](CCc3ccc(C(F)(F)F)c(Cl)c3)C(=O)N2C1 [PP2507] |  | 8.05 |  | 10.21 |  |  |  |  | AA (a compound having 20 or more is denoted as AA) | A (a compound having 10 or more and less than 20 is denoted as A)
6 | CCCN1C(=O)CN(C)C(=O)CN(C)C(=O)[C@H]([C@@H](C)CC)NC(=O)[C@H](CC(C)C)N(C)C(=O)C[C@@H](C(=O)N2CCOC2)N(C)C(=O)[C@H](C2CCCC2)N(C)C(=O)C2(CCCC2)NC(=O)[C@@H]2CCCN2C(=O)[C@H](CCc2ccc(C(F)(F)F)c(Cl)c2)NC(=O)CN(C)C(=O)[C@@H]1Cc1ccc(C(F)(F)F)cc1 [PP0174] ([NMeL]I[Sar][Sar][NPrPhe(4-CF3)][Sar][hPhe(3-Cl-4-CF3)]P[Ac5c][NMeGly(cPent)][NMeD]-{Oxazolidin(3-yl)}; lactam N-11) |  | 8.28 | 9.82 |  |  |  |  |  | B (a compound having 3 or more and less than 10 is denoted as B) | B (a compound having 3 or more and less than 10 is denoted as B)
7 | CC[C@H](C)[C@@H]1NC(=O)[C@H](COC)N(C)C(=O)C[C@@H](C(=O)N(C)C)N(C)C(=O)[C@H](C2CCCC2)N(C)C(=O)C2(CC(C)(C)C2)NC(=O)[C@@H]2C[C@@H](OC3CCC3)CN2C(=O)[C@H](CCc2cc(F)c(C(F)(F)F)c(F)c2)NC(=O)CN(C)C(=O)[C@H](CC2CCCCC2)N2CC/C=C\C[C@@H](C2=O)N(C)C(=O)CN(C2CC2)C1=O [PP2618] |  | 7.16 | 8.85 |  |  |  | A (a compound having 10 or more and less than 20 is denoted as A) | A (a compound having 10 or more and less than 20 is denoted as A) |  | 
8 | CCCN1C(=O)[C@@H]2CCN2C(=O)CN(C)C(=O)[C@H]([C@@H](C)CC)NC(=O)[C@H](CC(C)C)N(C)C(=O)C[C@@H](C(=O)N2CCOCC2)N(C)C(=O)[C@H](C2CCCC2)N(C)C(=O)C2(CCC2)NC(=O)[C@@H]2CCCN2C(=O)[C@H](CCc2ccc(C(F)(F)F)c(Cl)c2)NC(=O)CN(C)C(=O)[C@@H]1Cc1ccc(C(F)(F)F)cc1 [PP0407] ([NMeL]I[Sar][Aze][NPrPhe(4-CF3)][Sar][hPhe(3-Cl-4-CF3)]P[Ac4c][NMeGly(cPent)][NMeD]-Morpholide; lactam N-11) |  | 8.12 | 9.96 |  |  |  |  |  | C (A compound having a KD ratio of 0.1 or more and less than 3 is denoted as C) | B (a compound having 3 or more and less than 10 is denoted as B)

More lines, main results first:

Row | pKd [1, 5] | pIC50 [4] | pKd [1, 6] | pKd ([1]; SPR, Single Cycle Kinetics) | Structure (SMILES) | NRAS/KRAS (ratio of KD value for NRAS to KD value for KRAS) ([2]; KD ratio class) | HRAS/KRAS (ratio of KD value for HRAS to KD value for KRAS) ([3]; KD ratio class) | NRAS/KRAS (ratio of KD value with respect to GDP-bound NRAS wild-type protein to KD value with respect to KRAS) [2] | HRAS/KRAS (ratio of KD value with respect to GDP-bound HRAS wild-type protein to KD value with respect to KRAS) [3] | NRAS/KRAS (ratio of KD value for NRAS to KD value for KRAS) [2] | HRAS/KRAS (ratio of KD value for HRAS to KD value for KRAS) [3]
9 |  | 7.41 | 9.54 |  | CCC[C@H]1C(=O)N[C@@H]([C@@H](C)CC)C(=O)N2C[C@@H](OC)C[C@H]2C(=O)N(C)[C@H]2C/C=C\CCN(C2=O)[C@@H](Cc2ccc(C)cc2)C(=O)N(C)CC(=O)N[C@@H](CCc2cc(F)c(C(F)(F)F)c(F)c2)C(=O)N2C[C@H](OCC)C[C@H]2C(=O)NC2(CCC2)C(=O)N(C)[C@@H](C2CCCC2)C(=O)N(C)[C@H](C(=O)N(C)C)CC(=O)N1C [PP2550] |  |  | A (a compound having 10 or more and less than 20 is denoted as A) | B (a compound having 3 or more and less than 10 is denoted as B) |  | 
10 |  | 7.44 |  | 9.15 | CCOC[C@H]1C(=O)N[C@@H]([C@@H](C)CC)C(=O)N2CCC[C@H]2C(=O)N(C)[C@H]2C/C=C\CCN(C2=O)[C@@H](Cc2ccc(C)cc2)C(=O)N(C)CC(=O)N[C@@H](CCc2ccc(C(F)(F)F)c(OC)c2)C(=O)N2C[C@@H](C)C[C@H]2C(=O)NC2(CC(C)(C)C2)C(=O)N(C)[C@@H](C2CCCC2)C(=O)N(C)[C@H](C(=O)N(C)CC)CC(=O)N1C [PP2427] |  |  |  |  | AA (a compound having 20 or more is denoted as AA) | A (a compound having 10 or more and less than 20 is denoted as A)
11 | 9.77 | 8.42 |  |  | CCO[C@@H]1C[C@H]2C(=O)NC3(CCC3)C(=O)N(C)[C@@H](C3CCCC3)C(=O)N(C)[C@H](C(=O)N3CCCC3)CC(=O)N(C)[C@@H](CC(C)C)C(=O)N[C@@H]([C@@H](C)CC)C(=O)N(C)CC(=O)N(C)[C@H]3C/C=C\CCN(C3=O)[C@@H](Cc3ccc(C)cc3)C(=O)N(C)CC(=O)N[C@@H](CCc3cc(F)c(C(F)(F)F)c(F)c3)C(=O)N2C1 [PP1416] | A (a compound having 10 or more and less than 20 is denoted as A) | A (a compound having 10 or more and less than 20 is denoted as A) |  |  |  | 
12 | 9.92 | 8.02 |  |  | C=CC[C@H]1C(=O)N[C@@H]([C@@H](C)CC)C(=O)N(C)CC(=O)N(C)[C@H]2C/C=C\CCN(C2=O)[C@@H](CC2CCCCC2)C(=O)N(C)CC(=O)N[C@@H](CCc2cc(F)c(C(F)(F)F)c(F)c2)C(=O)N2C[C@H](OCC)C[C@H]2C(=O)NC2(CCC2)C(=O)N(C)[C@@H](C2CCCC2)C(=O)N(C)[C@H](C(=O)N(C)C)CC(=O)N1C [PP1468, (2S,8S,12R,14S,20S,23S,27S,30S,36S,38Z)-27-allyl-2-(cyclohexylmethyl)-20-cyclopentyl-8-[2-[3,5-difluoro-4-(trifluoromethyl)phenyl]ethyl]-12-ethoxy-N,N,4,19,22,26,32,35-octamethyl-30-[(1S)-1-methylpropyl]-3,6,9,15,18,21,25,28,31,34,42-undecaoxo-spiro[1,4,7,10,16,19,22,26,29,32,35-undecazatricyclo[34.5.1.0^10,14]dotetracont-38-ene-17,1′-cyclobutane]-23-carboxamide] | A (a compound having 10 or more and less than 20 is denoted as A) | A (a compound having 10 or more and less than 20 is denoted as A) |  |  |  | 

— patent US20240158446A1, “CYCLIC COMPOUND HAVING SELECTIVE INHIBITORY ACTION ON KRAS OVER HRAS AND NRAS” (CHUGAI SEIYAKU KABUSHIKI KAISHA, priority 2021, published 2024)
